# Assay results from PMC5467912, “Asymmetric regulation of quorum-sensing receptors drives autoinducer-specific gene expression programs in Vibrio cholerae” (PLoS Genetics, 2017).
# Where “and” joins values, the source holds several entries; their conditions need not be identical. Identical values can stand only once.
# Test system: CqsS-mKATE2
# Assay: Qrr4 regulation of CqsS-mKATE2 translational fusion, anhydrous tetracycline-inducible qrr4 (S4 Fig)
# Format: cell-based, E. coli
# Text: We examined whether Qrr regulation of CqsS is direct or indirect using a CqsS-mKATE2 translational fusion in E. coli expressing inducible qrr4. We reasoned that, if CqsS production is controlled by Qrr4, repression of CqsS-mKATE2 should occur when Qrr4 is induced. We verified that our system works by showing that inducible Qrr4 is capable of repressing a previously-identified direct target, VCA0107-GFP [24]. However, no repression of CqsS-mKATE2 occurred following induction of Qrr4 (S4 Fig).
# To assay qrr4 regulation of cqsS, the relative fluorescence of translational fusions (VCA0107B-GFP and CqsS-mKATE2) was measured in E. coli BWR1. E. coli carrying one of these plasmids also contained either an empty plasmid (pZA31) or pZA31 carrying anhydrous tetracycline-inducible qrr4. Qrr4-mediated repression of CqsS-mKATE2 was assessed. VCA0107-GFP is a known Qrr4-repressed target and was used as a positive control to show the system was functional. Overnight cultures were diluted 1:50 into fresh medium and aliquotted in triplicate into 96 well plates. […] OD600 and fluorescence were assessed using an Envision 2103 Multilabel Reader (Perkin Elmer).
# Supplementary file pgen.1006826.s008.tiff: S4 Fig Qrr4 indirectly regulates cqsS. Fluorescence from plasmid-encoded VCA0107-GFP (circles) and CqsS-mKATE2 (squares) was measured in E. coli. Either an empty vector (pZA31-lucNB, black) or pZA31-lucNB carrying tetracycline-inducible qrr4 (pYS245, red) was present in each strain. VCA0107 encodes a type VI secretion system component that is regulated by Qrr4. Data represent two experiments conducted in triplicate. Error bars represent standard errors of the mean. (TIFF) Click here for additional data file.
smiles,measurement,setting,value
Cc1c2c(c(O)c3c(O)cccc13)C(=O)[C@]1(O)C(=O)C(C(N)=O)=C(O)[C@@H](N(C)C)[C@@H]1C2 [aTc],"Relative reporter signal, experimental averages","pCqsS Qrr4, aTc 0.0976562 ng/ml (normalization point)",1
same,"Relative reporter signal, experimental averages","pCqsS Qrr4, aTc 0.195312 ng/ml, normalized to 0.0976562 ng/ml",0.9161 and 1.022 and 1.111
same,"Relative reporter signal, experimental averages","pCqsS Qrr4, aTc 0.390625 ng/ml, normalized to 0.0976562 ng/ml",0.9447 and 1.099 and 1.082
same,"Relative reporter signal, experimental averages","pCqsS Qrr4, aTc 0.78125 ng/ml, normalized to 0.0976562 ng/ml",0.9451 and 1.129 and 1.056
same,"Relative reporter signal, experimental averages","pCqsS Qrr4, aTc 1.5625 ng/ml, normalized to 0.0976562 ng/ml",1.068 and 1.16 and 0.9801
same,"Relative reporter signal, single replicates","pCqsS Qrr4, aTc 3.125 ng/ml",1.44 and 0.9097 and 1.127 and 0.956
same,"Relative reporter signal, experimental averages","pCqsS Qrr4, aTc 3.125 ng/ml, normalized to 0.0976562 ng/ml",1.078 and 1.159 and 0.9843
same,"Relative reporter signal, single replicates","pCqsS Qrr4, aTc 6.25 ng/ml",1.264 and 1.158 and 1.22 and 0.881 and 1.097 and 1.0668 and 1.093 and 0.9121 and 1.019
same,"Relative reporter signal, experimental averages","pCqsS Qrr4, aTc 6.25 ng/ml, normalized to 0.0976562 ng/ml",1.008 and 1.214 and 1.015
same,"Relative reporter signal, single replicates","pCqsS Qrr4, aTc 12.5 ng/ml",1.4702 and 1.295 and 1.361 and 0.8302 and 0.9914 and 0.8969 and 1.079 and 1.208 and 0.9918
same,"Relative reporter signal, experimental averages","pCqsS Qrr4, aTc 12.5 ng/ml, normalized to 0.0976562 ng/ml",1.093 and 1.376 and 0.9062
same,"Relative reporter signal, single replicates","pCqsS Qrr4, aTc 25 ng/ml",1.547 and 1.293 and 1.267 and 0.9302 and 0.911 and 0.8369 and 1.15 and 1.125 and 1.107
same,"Relative reporter signal, experimental averages","pCqsS Qrr4, aTc 25 ng/ml, normalized to 0.0976562 ng/ml",1.127 and 1.369 and 0.8927
same,"Relative reporter signal, single replicates","pCqsS Qrr4, aTc 50 ng/ml",1.539 and 1.282 and 1.3008 and 0.9601 and 0.9046 and 0.8156 and 1.287 and 1.24 and 0.9722
same,"Relative reporter signal, experimental averages","pCqsS Qrr4, aTc 50 ng/ml, normalized to 0.0976562 ng/ml",1.167 and 1.374 and 0.8934
same,"Relative reporter signal, single replicates","pCqsS Qrr4, aTc 100 ng/ml",1.525 and 1.187 and 1.2288 and 1.039 and 0.9388 and 0.8346 and 1.105 and 1.41 and 1.043
same,"Relative reporter signal, experimental averages","pCqsS Qrr4, aTc 100 ng/ml, normalized to 0.0976562 ng/ml",1.186 and 1.313 and 0.9374
same,"Relative reporter signal, single replicates","pCqsS Qrr4, aTc 200 ng/ml",1.816 and 1.134 and 1.357 and 1.246 and 1.145 and 0.8992 and 1.196 and 1.432 and 1.656
same,"Relative reporter signal, experimental averages","pCqsS Qrr4, aTc 200 ng/ml, normalized to 0.0976562 ng/ml",1.428 and 1.436 and 1.096
same,"Relative reporter signal, experimental averages","pCqsS vector, aTc 0.0976562 ng/ml (normalization point)",1
same,"Relative reporter signal, experimental averages","pCqsS vector, aTc 0.195312 ng/ml, normalized to 0.0976562 ng/ml",1.035 and 0.9136
same,"Relative reporter signal, experimental averages","pCqsS vector, aTc 0.390625 ng/ml, normalized to 0.0976562 ng/ml",1.0872 and 0.9606
same,"Relative reporter signal, experimental averages","pCqsS vector, aTc 0.78125 ng/ml, normalized to 0.0976562 ng/ml",0.9727 and 0.9156
same,"Relative reporter signal, experimental averages","pCqsS vector, aTc 1.5625 ng/ml, normalized to 0.0976562 ng/ml",1.033 and 0.9687
same,"Relative reporter signal, single replicates","pCqsS vector, aTc 3.125 ng/ml",1.095 and 1.006 and 1.033 and 1.049 and 1.037 and 0.9455
same,"Relative reporter signal, experimental averages","pCqsS vector, aTc 3.125 ng/ml, normalized to 0.0976562 ng/ml",1.045 and 1.01
same,"Relative reporter signal, single replicates","pCqsS vector, aTc 6.25 ng/ml",1.025 and 0.9971 and 1.015 and 1.078 and 0.9309 and 0.9316
same,"Relative reporter signal, experimental averages","pCqsS vector, aTc 6.25 ng/ml, normalized to 0.0976562 ng/ml",1.0121 and 0.9801
same,"Relative reporter signal, single replicates","pCqsS vector, aTc 12.5 ng/ml",1 and 0.9215 and 1.059 and 1.011 and 1.014 and 0.8976
same,"Relative reporter signal, experimental averages","pCqsS vector, aTc 12.5 ng/ml, normalized to 0.0976562 ng/ml",0.9936 and 0.9741
same,"Relative reporter signal, single replicates","pCqsS vector, aTc 25 ng/ml",0.9696 and 0.9738 and 0.9202 and 1.059 and 1.016 and 0.9126
same,"Relative reporter signal, experimental averages","pCqsS vector, aTc 25 ng/ml, normalized to 0.0976562 ng/ml",0.9545 and 0.9958
same,"Relative reporter signal, single replicates","pCqsS vector, aTc 50 ng/ml",0.9232 and 0.9361 and 1.0359 and 1.102 and 1.073 and 0.9182
same,"Relative reporter signal, experimental averages","pCqsS vector, aTc 50 ng/ml, normalized to 0.0976562 ng/ml",0.965 and 1.031
same,"Relative reporter signal, single replicates","pCqsS vector, aTc 100 ng/ml",0.9506 and 0.9792 and 0.9909 and 1.135 and 1.123 and 0.9303
same,"Relative reporter signal, experimental averages","pCqsS vector, aTc 100 ng/ml, normalized to 0.0976562 ng/ml",0.9736 and 1.063
same,"Relative reporter signal, single replicates","pCqsS vector, aTc 200 ng/ml",1.017 and 1.029 and 1.01 and 1.335 and 1.085 and 1.09
same,"Relative reporter signal, experimental averages","pCqsS vector, aTc 200 ng/ml, normalized to 0.0976562 ng/ml",1.019 and 1.17
